Data as given in ChEMBL document CHEMBL4130430, “Efficacy of a series of alpha-pyrone derivatives against Leishmania (L.) infantum and Trypanosoma cruzi” (Eur J Med Chem, 2017).
The source made the active and inactive calls. No cut-off for these calls is given here.

Key:
[1] = Selectivity index, ratio of IC50 for mouse NCTC-929 cells to IC50 for Trypanosoma cruzi Y trypomastigotes; assay type: toxicity; conditions: NCTC-929 cells versus Trypanosoma cruzi Y trypomastigotes, read-out: Ratio IC50
L929 = assay: Cytotoxicity against mouse NCTC-929 cells after 72 hrs by MTT assay; assay type: cell-based; conditions: L929, 72 h
Leishmania infantum [2] = assay: Antileishmanial activity against Leishmania infantum MHOM/BR/1972/LD amastigotes infected in BALB/c mouse peritoneal macrophages assessed as parasite viability up to 200 uM after 72 hrs by Giemsa staining-based light microscopic analysis; assay type: functional, organism-based
Leishmania infantum [3] = assay: Antileishmanial activity against Leishmania infantum MHOM/BR/1972/LD promastigotes assessed as parasite viability up to 200 uM after 48 hrs by MTT assay; assay type: functional, organism-based
Trypanosoma cruzi [4] = assay: Antitrypanosomal activity against Trypanosoma cruzi Y trypomastigotes assessed as parasite viability after 24 hrs by resazurin staining-based hemocytometric analysis; assay type: functional, organism-based
Leishmania infantum [5] = assay: Antileishmanial activity against Leishmania infantum MHOM/BR/1972/LD amastigotes infected in BALB/c mouse peritoneal macrophages assessed as parasite viability after 72 hrs by Giemsa staining-based light microscopic analysis; assay type: functional, organism-based
[6] = Selectivity index, ratio of IC50 for mouse NCTC-929 cells to IC50 for Leishmania infantum MHOM/BR/1972/LD amastigotes infected in BALB/C mouse peritoneal macrophages; assay type: toxicity; conditions: read-out: Ratio IC50
Trypanosoma cruzi [7] = assay: Antitrypanosomal activity against Trypanosoma cruzi Y trypomastigotes assessed as parasite viability up to 200 uM after 24 hrs by resazurin staining-based hemocytometric analysis; assay type: functional, organism-based
Leishmania infantum [8] = assay: Antileishmanial activity against Leishmania infantum MHOM/BR/1972/LD promastigotes assessed as parasite viability after 48 hrs by MTT assay; assay type: functional, organism-based
Mus musculus [9] = assay: Toxicity in BALB/c mouse infected with Trypanosoma cruzi Y assessed as mortality at 100 mg/kg/day, po administered for 10 consecutive days starting on day 5 post infection measured during compound dosing; assay type: organism-based; conditions: in vivo
Trypanosoma cruzi [10] = assay: Antitrypanosomal activity against Trypanosoma cruzi Y infected in BALB/c mouse assessed as reduction in blood parasitemia at 100 mg/kg, po administered every day starting on day 5 post infection measured on day 8 post infection; assay type: functional; parameters: scale not given: the % may be the effect or the level left
Trypanosoma cruzi [11] = assay: Antitrypanosomal activity against Trypanosoma cruzi Y infected in BALB/c mouse assessed as reduction in blood parasitemia at 100 mg/kg/day, […] dosed administered for 10 consecutive days starting on day 5 post infection measured on day 14 post infection relative to control; assay type: functional; parameters: scale not given: the % may be the effect or the level left
Mus musculus [12] = assay: Toxicity in BALB/c mouse infected with Trypanosoma cruzi Y assessed as mortality at 30 mg/kg/day, ip administered for 10 consecutive days starting on day 5 post infection measured during compound dosing; assay type: organism-based; conditions: in vivo
Trypanosoma cruzi [13] = assay: Induction of mitochondrial membrane hyperpolarization in Trypanosoma cruzi Y trypomastigotes assessed as increase in fluorescence at IC90 after 2 hrs by rhodamine123/propidium iodide staining-based flow cytometric analysis relative to control; assay type: functional
Trypanosoma cruzi [14] = assay: Potency index, ratio of benznidazole IC50 to test compound IC50 for Trypanosoma cruzi Y trypomastigotes; assay type: functional
Trypanosoma cruzi [15] = assay: Antitrypanosomal activity against Trypanosoma cruzi Y intracellular amastigotes infected in BALB/c mouse peritoneal macrophages at 25 uM after 48 hrs by Giemsa staining-based light microscopic analysis; assay type: functional
Trypanosoma cruzi [16] = assay: Induction of mitochondrial membrane hyperpolarization in Trypanosoma cruzi Y trypomastigotes after 1 hr by rhodamine123/propidium iodide staining-based flow cytometric analysis; assay type: functional, organism-based
Trypanosoma cruzi [17] = assay: Antitrypanosomal activity against Trypanosoma cruzi Y infected in BALB/c mouse assessed as reduction in blood parasitemia at 30 mg/kg, ip administered every day starting on day 5 post infection measured on day 8 post infection; assay type: functional, organism-based
Trypanosoma cruzi [18] = assay: Induction of mitochondrial membrane hyperpolarization in Trypanosoma cruzi Y trypomastigotes assessed as increase in fluorescence at IC50 after 2 hrs by rhodamine123/propidium iodide staining-based flow cytometric analysis relative to control; assay type: functional
Trypanosoma cruzi [19] = assay: Induction of plasma membrane permeabilization in Trypanosoma cruzi Y trypomastigotes at IC50 to IC90 measured every 1 hr up to 7 hrs by Sytox Green staining-based fluorimetric analysis; assay type: functional, organism-based
Mus musculus [20] = assay: Hepatotoxicity in BALB/c mouse infected with Trypanosoma cruzi Y assessed as hydropic degeneration of hepatocytes at 30 mg/kg/day, ip dosed for 10 consecutive days by hematoxylin and eosin staining-based light microscopic analysis; assay type: toxicity, organism-based; conditions: in vivo
Trypanosoma cruzi [21] = assay: Antitrypanosomal activity against Trypanosoma cruzi Y infected in BALB/c mouse assessed as reduction in blood parasitemia at 30 mg/kg/day, ip dosed administered for 10 consecutive days starting on day 5 post infection measured on day 14 post infection relative to control; assay type: functional; parameters: scale not given: the % may be the effect or the level left

SMILES	selectivity ratio [1]	IC50 (L929)	Activity (Leishmania infantum [2])	Activity (Leishmania infantum [3])	IC50 (Trypanosoma cruzi [4])	Activity (Trypanosoma cruzi [7])	also measured
CCCCCCCCCCCCCCCCc1c(O)cc(C)oc1=O	1.4	38.2 µM	inactive	inactive	26.6 µM	–	–
Cc1cc(O)c(C(=S)NC2CCCCC2)c(=O)o1	1.9	177 µM	inactive	inactive	90.5 µM	–	–
CCCCCCCC(=O)c1c(O)cc(C)oc1=O	5.4	140 µM	inactive	inactive	25.7 µM	–	–
CCCCCCNC(=O)c1c(O)cc(C)oc1=O	2.7	196 µM	–	inactive	72.6 µM	–	IC50 (Leishmania infantum [5]): 54 µM; selectivity ratio [6]: 3.6
CCCCCC(=O)c1c(O)cc(C)oc1=O	–	> 200 µM	–	inactive	–	inactive	IC50 (Leishmania infantum [5]): 13.8 µM; selectivity ratio [6]: > 14.5
CCCCCCCCCCCCCCc1c(O)cc(C)oc1=O	4.9	24.1 µM	inactive	inactive	4.9 µM	–	–
CCCCCCCCc1c(O)cc(C)oc1=O	3.6	145 µM	inactive	inactive	40 µM	–	–
CCCCCCCCCCCCCCCC(=O)c1c(O)cc(C)oc1=O	2.5	164 µM	inactive	inactive	66.3 µM	–	–
Cc1cc(O)c(C(=O)NCCc2ccccc2)c(=O)o1	–	178 µM	–	inactive	–	inactive	IC50 (Leishmania infantum [5]): 46.8 µM; selectivity ratio [6]: 3.8
Cc1cc(O)c(C(=O)Nc2ccc3c(c2)OCO3)c(=O)o1	–	> 200 µM	inactive	inactive	–	inactive	–
Cc1cc(O)c(C(=O)NCCCc2ccccc2)c(=O)o1	1.7	143 µM	inactive	inactive	81.4 µM	–	–
CCCCCCCCCCCCc1c(O)cc(C)oc1=O	3.5	57.2 µM	inactive	–	16.1 µM	–	IC50 (Leishmania infantum [8]): 138 µM
Cc1cc(O)c(C(=O)Nc2ccc(OCc3ccccc3)cc2)c(=O)o1	–	> 200 µM	inactive	inactive	–	inactive	–
CCCCCCCCCCc1c(O)cc(C)oc1=O	–	56 µM	inactive	–	–	inactive	IC50 (Leishmania infantum [8]): 118 µM
O=C(Cn1ccnc1[N+](=O)[O-])NCc1ccccc1 [BENZNIDAZOLE]	> 36	> 200 µM	–	–	16.2 µM	–	Activity (Mus musculus [9]): Non-Toxic; Activity (Trypanosoma cruzi [10]): 100%; Activity (Trypanosoma cruzi [11]): 100%
CCCCCCCCCCCC(=O)c1c(O)cc(C)oc1=O	71.1	90.3 µM	inactive	inactive	1.3 µM	–	–
CCCCCCCCCCCCCCCCOP(=O)([O-])OCC[N+](C)(C)C [MILTEFOSINE]	32.6	241 µM	–	–	–	–	IC50 (Leishmania infantum [5]): 7.4 µM; IC50 (Leishmania infantum [8]): 16.2 µM
Cc1cc(O)c(C(=O)NCc2ccccc2)c(=O)o1	–	> 200 µM	–	inactive	–	inactive	IC50 (Leishmania infantum [5]): 52.8 µM; selectivity ratio [6]: 5
CCCCCCCNC(=O)c1c(O)cc(C)oc1=O	2.4	187 µM	inactive	inactive	78.1 µM	–	–
Cc1cc(O)c(CC2CCCCC2)c(=O)o1	–	> 200 µM	inactive	inactive	–	inactive	–
CCCCCCc1c(O)cc(C)oc1=O	–	> 200 µM	inactive	inactive	–	inactive	–
Cc1cc(O)c(CCC2CCCCC2)c(=O)o1	3.4	109 µM	inactive	inactive	32.2 µM	–	–
CCCCCCCCCCCCCCNC(=O)c1c(O)cc(C)oc1=O	–	> 200 µM	inactive	inactive	–	inactive	–
Cc1cc(O)c(C(=S)Nc2ccccc2)c(=O)o1	–	> 200 µM	–	inactive	–	inactive	IC50 (Leishmania infantum [5]): > 100 µM
Cc1cc(O)c(C(=O)C2CCCCC2)c(=O)o1	–	> 200 µM	inactive	inactive	–	inactive	–
Cc1cc(O)c(C(=O)CCC2CCCCC2)c(=O)o1	26.8	117 µM	–	inactive	4.4 µM	–	IC50 (Leishmania infantum [5]): 39.2 µM; selectivity ratio [6]: 2.9
CCCCCCCCCC(=O)c1c(O)cc(C)oc1=O	7.6	134 µM	inactive	inactive	17.5 µM	–	–
Cc1cc(O)c(C(=O)Nc2ccccc2)c(=O)o1	–	> 200 µM	inactive	inactive	–	inactive	–
CCCCCCCCCCCCCC(=O)c1c(O)cc(C)oc1=O	> 77.5	> 200 µM	inactive	inactive	2.6 µM	–	Activity (Mus musculus [12]): Non-Toxic; Activity (Trypanosoma cruzi [13]): 26%; Ratio IC50 (Trypanosoma cruzi [14]): 6; Activity (Trypanosoma cruzi [15]): 14%; Activity (Trypanosoma cruzi [16]): Dose-dependent effect; Activity (Trypanosoma cruzi [17]): inactive; Activity (Trypanosoma cruzi [18]): 25%; Activity (Trypanosoma cruzi [19]): inactive; Activity (Mus musculus [20]): Non-Toxic; Activity (Trypanosoma cruzi [21]): 55%
